Experimental data: patent publication US20120232070A1, “Use of Indole Derivatives as Nurr-1 Activators for the Application Thereof as a Medicament for the Treatment of Parkinson's Disease” (Laboratoires Fournier SA, priority 2009, published 2012)

What was measured:
[1] = biological target: hNurr1_RXRαFL (NURR1/RXRα heterodimer) (Homo sapiens, UniProt P19793+P43354); assay: Transactivation assay in Cos-7 cells, NURR-1-Gal4 / RXRα, luciferase reporter; type: cell-based; settings: for Emax: COS-7, read-out: hNurr1_RXRαFL Eff (%), efficacy in % relative to the reference XCT0135908 at 2·10^−5 M (=100%); for EC50: Cos-7 cells, overnight incubation
Procedure, shortened: (§1)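 Cos-7 cells co-transfected with human NURR-1-Gal4 chimera, human RXRα or RXRγ, and 5Gal4pGL3-TK-Luc reporter; compounds added at 10^−4 to 3·10^−10 M final, overnight incubation, luciferase read. Induction over each heterodimer's baseline expressed as % of reference RXR agonist XCT0135908 (2·10^−5 M) taken as 100%.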

[2] = biological target: hNurr1_RXRγFL (NURR1/RXRγ heterodimer) (Homo sapiens, UniProt P43354+P48443); assay: Transactivation assay in Cos-7 cells, NURR-1-Gal4 / RXRγ, luciferase reporter; type: cell-based; settings: for Emax: COS-7, read-out: hNurr1_RXRγFL Eff (%), efficacy in % relative to the reference XCT0135908 at 2·10^−5 M (=100%); for EC50: Cos-7 cells, overnight incubation
Procedure, shortened: as §1

[3] = efficacy in % relative to the reference XCT0135908 at 2·10^−5 M (=100%)

Chain of hNurr1_RXRαFL (NURR1/RXRα heterodimer) (P19793 whole entry, the tested form may be a part): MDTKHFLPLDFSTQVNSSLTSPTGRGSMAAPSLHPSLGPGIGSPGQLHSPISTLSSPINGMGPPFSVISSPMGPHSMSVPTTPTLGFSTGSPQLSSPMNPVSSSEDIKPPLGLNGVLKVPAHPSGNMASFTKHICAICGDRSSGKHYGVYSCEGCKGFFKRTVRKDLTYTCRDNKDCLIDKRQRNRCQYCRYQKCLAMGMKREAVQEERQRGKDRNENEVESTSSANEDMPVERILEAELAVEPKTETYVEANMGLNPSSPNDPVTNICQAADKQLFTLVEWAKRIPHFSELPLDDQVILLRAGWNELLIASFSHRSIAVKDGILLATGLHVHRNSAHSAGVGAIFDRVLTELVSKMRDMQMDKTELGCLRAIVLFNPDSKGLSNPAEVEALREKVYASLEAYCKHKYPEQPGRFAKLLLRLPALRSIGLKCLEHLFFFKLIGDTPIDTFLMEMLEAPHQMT
Chain of hNurr1_RXRαFL (NURR1/RXRα heterodimer) (P43354 328-598): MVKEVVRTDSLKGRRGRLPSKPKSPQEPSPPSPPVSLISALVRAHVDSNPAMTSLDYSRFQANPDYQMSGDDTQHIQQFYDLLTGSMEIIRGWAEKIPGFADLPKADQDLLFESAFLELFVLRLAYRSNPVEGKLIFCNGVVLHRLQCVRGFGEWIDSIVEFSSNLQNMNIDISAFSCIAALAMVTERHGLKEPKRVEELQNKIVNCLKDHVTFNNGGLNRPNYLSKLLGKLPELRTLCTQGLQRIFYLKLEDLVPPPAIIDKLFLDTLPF
Chain of hNurr1_RXRγFL (NURR1/RXRγ heterodimer) (P43354 328-598): as above
Chain of hNurr1_RXRγFL (NURR1/RXRγ heterodimer) (P48443 whole entry, the tested form may be a part): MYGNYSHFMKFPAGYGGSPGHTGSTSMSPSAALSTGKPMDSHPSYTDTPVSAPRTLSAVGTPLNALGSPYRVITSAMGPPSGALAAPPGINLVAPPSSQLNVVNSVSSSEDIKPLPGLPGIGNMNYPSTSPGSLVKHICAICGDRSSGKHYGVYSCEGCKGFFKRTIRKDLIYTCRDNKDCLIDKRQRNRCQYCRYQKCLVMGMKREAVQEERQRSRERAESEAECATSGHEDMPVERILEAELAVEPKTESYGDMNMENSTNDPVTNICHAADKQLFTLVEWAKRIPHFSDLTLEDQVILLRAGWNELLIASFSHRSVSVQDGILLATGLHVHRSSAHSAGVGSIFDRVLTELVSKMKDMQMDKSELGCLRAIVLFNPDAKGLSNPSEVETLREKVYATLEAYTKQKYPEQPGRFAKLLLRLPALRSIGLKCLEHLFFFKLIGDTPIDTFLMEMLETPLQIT

| Compound | Emax [1] | EC50 [1] | Emax [2] | EC50 [2] | hNurr1_RXRαFL Eff (%) [1, 3] | hNurr1_RXRγFL Eff (%) [2, 3] |
| --- | --- | --- | --- | --- | --- | --- |
| CN1CCOc2ccc(S(=O)(=O)n3c(Cc4ccc(C(=O)O)s4)cc4cc(C(F)(F)F)ccc43)cc21 [Example 73, 5-[[1-[[4-methyl-3,4-dihydro-2H-benzo[1,4]oxazin-6-yl]-sulfonyl]-5-trifluoromethyl-1H-indol-2-yl]methyl]-thiophene-2-carboxylic acid] | 94% | 37 nM | 89% | 66 nM |  |  |
| CCCOc1ccc(S(=O)(=O)n2c(Cc3ccc(C(=O)O)cc3)cc3cc(C(F)(F)F)ccc32)cc1 [Example 123, 4-[[1-[4-propoxy-phenylsulfonyl]-5-(trifluoromethyl)-1H-indol-2-yl]methyl]benzoic acid] | 60% | 217 nM | 36% | 646 nM |  |  |
| COC(=O)c1ccc(Cc2cc3cc(Cl)ccc3n2S(=O)(=O)c2ccc3c(c2)C(C)(C)CO3)cc1 [Example 182] |  | 55 nM |  | 154 nM | 83% | 85% |
| O=C(O)c1ccc(Cc2cc3cc(C(F)(F)F)ccc3n2S(=O)(=O)c2ccc(Oc3ccccc3)cc2)cc1 [Example 144, 4-[[1-[4-phenoxy-phenylsulfonyl]-5-(trifluoromethyl)-1H-indol-2-yl]methyl]benzoic acid] | 30% | 839 nM | 19% | > 10000 nM |  |  |
| CCc1ccc(S(=O)(=O)n2c(Cc3ccc(C(=O)O)cc3)cc3cc(C(F)(F)F)ccc32)cc1 [Example 133, 4-[[1-[4-ethyl-phenylsulfonyl]-5-(trifluoromethyl)-1H-indol-2-yl]methyl]benzoic acid] | 49% | 177 nM | 38% | 304 nM |  |  |
| CCC(C)(C)c1ccc(S(=O)(=O)n2c(Cc3ccc(C(=O)O)cc3)cc3cc(Cl)ccc32)cc1 [Example 168, 4-[[5-chloro-1-[[4-(1,1-dimethylpropyl)phenyl]sulfonyl]-1H-indol-2-yl]methyl]benzoic acid] | 48% | 422 nM | 52% | 501 nM |  |  |
| CC(C)(C)c1cccc(S(=O)(=O)n2c(Cc3ccc(C=C4SC(=S)NC4=O)cc3)cc3cc(C(F)(F)F)ccc32)c1 [Example 223] | 72% | 1320 nM | 30% | 3390 nM |  |  |
| CN1C(=O)COc2ccc(S(=O)(=O)n3c(Cc4ccc(C(=O)O)cc4)cc4cc(C(F)(F)F)ccc43)cc21 [Example 125, 4-[[1-[4-methyl-3-oxo-3,4-dihydro-2H-benzo[1,4]oxazine-6-sulfonyl]-5-(trifluoromethyl)-1H-indol-2-yl]methyl]benzoic acid] | 61% | 808 nM | 101% | 724 nM |  |  |
| Cc1cc(C(=O)O)ccc1Cc1cc2cc(C(F)(F)F)ccc2n1S(=O)(=O)c1cccc(C(C)(C)C)c1 [Example 197, 4-[[1-[[3-(1,1-dimethylethyl)phenyl]sulfonyl]-5-trifluoromethyl-1H-indol-2-yl]methyl]-3-methyl-benzoic acid] | 68% | 278 nM | 52% | 592 nM |  |  |
| COC(=O)c1ccc(Cc2cc3cc(C(F)(F)F)ccc3n2S(=O)(=O)c2ccc(C(C)C)cc2)cc1F [Example 1, 2-fluoro-4-[[1-[[4-(1-methylethyl)phenyl]sulfonyl]-5-(trifluoromethyl)-1H-indol-2-yl]methyl]benzoic acid, methyl ester] | 65% | 412 nM | 60% | 718 nM |  |  |
| Cc1ccc(S(=O)(=O)n2c(Cc3ccc(C(=O)O)cc3)cc3cc(C(F)(F)F)ccc32)cc1 [Example 134] | 50% | 212 nM | 36% | 552 nM |  |  |
| CC(C)(C)c1cccc(S(=O)(=O)n2c(Cc3ccc(C4=NOC(=O)C4)cc3)cc3cc(C(F)(F)F)ccc32)c1 [Example 228, 3-[4-[[1-[[3-(1,1-dimethylethyl)phenyl]sulfonyl]-5-(trifluoromethyl)-1H-indol-2-yl]methyl]-phenyl]-4H-isoxazol-5-one] | 90% | 113 nM | 63% | 335 nM |  |  |
| CC(C)CCc1ccc(S(=O)(=O)n2c(Cc3ccc(C(=O)O)cc3)cc3cc(C(F)(F)F)ccc32)cc1 [Example 128, 4-[[1-[4-(3-methyl-butyl)-phenylsulfonyl]-5-(trifluoromethyl)-1H-indol-2-yl]methyl]benzoic acid] | 44% | 337 nM | 36% | 1590 nM |  |  |
| Cn1nccc1-c1cccc(S(=O)(=O)n2c(Cc3ccc(C(=O)O)cc3)cc3cc(C(F)(F)F)ccc32)c1 [Example 20, 4-[[1-[[3-(1-methyl-1H-pyrazol-5-yl)phenyl]sulfonyl]-5-(trifluoromethyl)-1H-indol-2-yl]methyl]benzoic acid] | 54% | 295 nM | 44% | 617 nM |  |  |
| O=C(O)c1ccc(Cc2cc3cc(C(F)(F)F)ccc3n2S(=O)(=O)c2ccc(N3CCOCC3)nc2)cc1 [Example 135, 4-[[1-[[6-(4-morpholinyl)-3-pyridinyl]sulfonyl]-5-(trifluoromethyl)-1H-indol-2-yl]methyl]benzoic acid] | 31% | 643 nM | 19% | 917 nM |  |  |
| Cn1ccc(-c2cccc(S(=O)(=O)n3c(Cc4ccc(C(=O)O)cc4)cc4cc(C(F)(F)F)ccc43)c2)n1 [Example 18, 4-[[1-[[3-(1-methyl-1H-pyrazol-3-yl)phenyl]sulfonyl]-5-(trifluoromethyl)-1H-indol-2-yl]methyl]benzoic acid] | 60% | 407 nM | 34% | 668 nM |  |  |
| COc1cccc(S(=O)(=O)n2c(Cc3ccc(C(=O)O)cc3)cc3cc(C(F)(F)F)ccc32)c1 [Example 13, 4-[[1-[(3-methoxyphenyl)sulfonyl]-5-(trifluoromethyl)-1H-indol-2-yl]methyl]benzoic acid] | 69% | 207 nM | 36% | 528 nM |  |  |
| O=C(O)c1ccc(Cc2cc3cc(Cl)ccc3n2S(=O)(=O)c2ccc(Oc3ccccc3)nc2)cc1 [Example 175, 4-[[5-chloro-1-[(6-phenoxy-3-pyridinyl)sulfonyl]-1H-indol-2-yl]methyl]benzoic acid] | 38% | 331 nM | 14% | > 10000 nM |  |  |
| CCCCCc1ccc(S(=O)(=O)n2c(Cc3ccc(C(=O)O)cc3)cc3cc(Cl)ccc32)cc1 [Example 170, 4-[[1-[4-pentyl-phenylsulfonyl]-5-(chloro)-1H-indol-2-yl]methyl]benzoic acid] | 42% | 1740 nM | 26% | > 10000 nM |  |  |
| O=C(O)c1ccc(Cc2cc3cc(Cl)ccc3n2S(=O)(=O)c2ccc3c(c2)OCO3)cc1 [Example 174, 4-[[1-(1.3-benzodioxol-5-ylsulfonyl)-5-chloro-1H-indol-2-yl]methyl]benzoic acid] | 47% | 593 nM | 37% | 813 nM |  |  |
| Cc1ccc(S(=O)(=O)n2c(Cc3ccc(C(=O)O)cc3)cc3cc(Cl)ccc32)cc1 [Example 171, 4-[[5-chloro-1-[(4-methylphenyl)sulfonyl]-1H-indol-2-yl]methyl]benzoic acid] | 40% | 510 nM | 31% | 944 nM |  |  |
